Test results taken from ChEMBL document CHEMBL1201862, “PubChem BioAssay data set” (2004).
Activity calls are given as the source filed them.

Experiments:
[1] = tested on: H4; assay: Luminescence Cell-Based Dose Response HTS to Identify Activators of 5'UTR Stem-Loop Driven Prion Protein mRNA Translation in H4 Neuroglioblastoma Cells. [Related pubchem assays: 1829 (Project Summary), 1814 (Primary HTS)]; format: functional; details: Homo sapiens
[2] = Luminescence Cell-Based Dose Confirmation HTS to Identify Activators of 5'UTR Stem-Loop Driven Alpha-Synuclein mRNA Translation in H4 Neuroglioblastoma Cells. [Related pubchem assays: 1829 (Project Summary), 1814 (Primary HTS)]; format: functional
[3] = Luminescence Cell-Based Dose Response HTS to Identify Activators of Luciferase Translation or Activity in H4 […] Cells. [Related pubchem assays: 1829 (Project Summary), 1814 (Primary HTS)]; format: functional
[4] = tested on: HeLa; assay: ATP-based viability loss in HeLa cells – cell-based, CellTiter-Glo luminescence, cherry-pick samples, cytotoxicity control for MITF activator project, dose response (AID 540259); format: functional; details: Homo sapiens
[5] = molecular target: Beta-galactosidase (Escherichia coli, UniProt Q8VNN2); assay: PubChem AID 485352; format: functional
Chain of Beta-galactosidase (Q8VNN2 whole entry): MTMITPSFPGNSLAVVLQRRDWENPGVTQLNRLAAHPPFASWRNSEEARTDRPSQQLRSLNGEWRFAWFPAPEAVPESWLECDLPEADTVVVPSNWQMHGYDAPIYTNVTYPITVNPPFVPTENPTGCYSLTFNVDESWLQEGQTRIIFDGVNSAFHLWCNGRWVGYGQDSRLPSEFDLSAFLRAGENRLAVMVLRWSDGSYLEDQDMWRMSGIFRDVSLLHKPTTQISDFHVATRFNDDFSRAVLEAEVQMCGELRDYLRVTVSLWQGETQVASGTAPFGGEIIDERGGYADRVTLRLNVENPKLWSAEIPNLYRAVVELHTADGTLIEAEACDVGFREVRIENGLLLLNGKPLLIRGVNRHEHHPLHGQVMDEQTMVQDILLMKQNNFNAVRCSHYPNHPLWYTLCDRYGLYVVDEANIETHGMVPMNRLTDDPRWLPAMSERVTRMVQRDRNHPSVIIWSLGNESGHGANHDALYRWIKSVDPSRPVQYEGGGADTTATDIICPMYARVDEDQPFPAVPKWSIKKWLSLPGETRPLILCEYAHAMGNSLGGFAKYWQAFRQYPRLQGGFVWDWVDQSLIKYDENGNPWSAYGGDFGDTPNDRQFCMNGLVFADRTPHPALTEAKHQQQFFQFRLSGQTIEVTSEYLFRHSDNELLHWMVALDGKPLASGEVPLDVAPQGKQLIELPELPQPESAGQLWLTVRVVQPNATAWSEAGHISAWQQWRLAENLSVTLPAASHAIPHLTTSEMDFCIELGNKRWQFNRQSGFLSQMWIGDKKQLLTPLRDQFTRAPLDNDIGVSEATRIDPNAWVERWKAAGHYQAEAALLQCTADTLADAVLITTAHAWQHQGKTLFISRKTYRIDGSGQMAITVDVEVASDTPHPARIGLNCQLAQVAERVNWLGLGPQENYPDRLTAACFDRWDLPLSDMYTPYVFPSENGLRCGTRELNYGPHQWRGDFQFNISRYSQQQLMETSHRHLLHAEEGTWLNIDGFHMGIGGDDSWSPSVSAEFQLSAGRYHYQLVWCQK

[6] = molecular target: T1, Fatty acid synthase (Homo sapiens, UniProt P49327); assay: inhibition of human FAS-TE enzyme activity – biochemical, endpoint fluorescence intensity, uHTS hits, dose response (AID 624327); format: functional;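 further: fluorescence from hydrolysis of an O-methyl fluorescein acyl ester substrate by the enzyme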
T1 sequence (P49327 whole entry, the tested form may be a part): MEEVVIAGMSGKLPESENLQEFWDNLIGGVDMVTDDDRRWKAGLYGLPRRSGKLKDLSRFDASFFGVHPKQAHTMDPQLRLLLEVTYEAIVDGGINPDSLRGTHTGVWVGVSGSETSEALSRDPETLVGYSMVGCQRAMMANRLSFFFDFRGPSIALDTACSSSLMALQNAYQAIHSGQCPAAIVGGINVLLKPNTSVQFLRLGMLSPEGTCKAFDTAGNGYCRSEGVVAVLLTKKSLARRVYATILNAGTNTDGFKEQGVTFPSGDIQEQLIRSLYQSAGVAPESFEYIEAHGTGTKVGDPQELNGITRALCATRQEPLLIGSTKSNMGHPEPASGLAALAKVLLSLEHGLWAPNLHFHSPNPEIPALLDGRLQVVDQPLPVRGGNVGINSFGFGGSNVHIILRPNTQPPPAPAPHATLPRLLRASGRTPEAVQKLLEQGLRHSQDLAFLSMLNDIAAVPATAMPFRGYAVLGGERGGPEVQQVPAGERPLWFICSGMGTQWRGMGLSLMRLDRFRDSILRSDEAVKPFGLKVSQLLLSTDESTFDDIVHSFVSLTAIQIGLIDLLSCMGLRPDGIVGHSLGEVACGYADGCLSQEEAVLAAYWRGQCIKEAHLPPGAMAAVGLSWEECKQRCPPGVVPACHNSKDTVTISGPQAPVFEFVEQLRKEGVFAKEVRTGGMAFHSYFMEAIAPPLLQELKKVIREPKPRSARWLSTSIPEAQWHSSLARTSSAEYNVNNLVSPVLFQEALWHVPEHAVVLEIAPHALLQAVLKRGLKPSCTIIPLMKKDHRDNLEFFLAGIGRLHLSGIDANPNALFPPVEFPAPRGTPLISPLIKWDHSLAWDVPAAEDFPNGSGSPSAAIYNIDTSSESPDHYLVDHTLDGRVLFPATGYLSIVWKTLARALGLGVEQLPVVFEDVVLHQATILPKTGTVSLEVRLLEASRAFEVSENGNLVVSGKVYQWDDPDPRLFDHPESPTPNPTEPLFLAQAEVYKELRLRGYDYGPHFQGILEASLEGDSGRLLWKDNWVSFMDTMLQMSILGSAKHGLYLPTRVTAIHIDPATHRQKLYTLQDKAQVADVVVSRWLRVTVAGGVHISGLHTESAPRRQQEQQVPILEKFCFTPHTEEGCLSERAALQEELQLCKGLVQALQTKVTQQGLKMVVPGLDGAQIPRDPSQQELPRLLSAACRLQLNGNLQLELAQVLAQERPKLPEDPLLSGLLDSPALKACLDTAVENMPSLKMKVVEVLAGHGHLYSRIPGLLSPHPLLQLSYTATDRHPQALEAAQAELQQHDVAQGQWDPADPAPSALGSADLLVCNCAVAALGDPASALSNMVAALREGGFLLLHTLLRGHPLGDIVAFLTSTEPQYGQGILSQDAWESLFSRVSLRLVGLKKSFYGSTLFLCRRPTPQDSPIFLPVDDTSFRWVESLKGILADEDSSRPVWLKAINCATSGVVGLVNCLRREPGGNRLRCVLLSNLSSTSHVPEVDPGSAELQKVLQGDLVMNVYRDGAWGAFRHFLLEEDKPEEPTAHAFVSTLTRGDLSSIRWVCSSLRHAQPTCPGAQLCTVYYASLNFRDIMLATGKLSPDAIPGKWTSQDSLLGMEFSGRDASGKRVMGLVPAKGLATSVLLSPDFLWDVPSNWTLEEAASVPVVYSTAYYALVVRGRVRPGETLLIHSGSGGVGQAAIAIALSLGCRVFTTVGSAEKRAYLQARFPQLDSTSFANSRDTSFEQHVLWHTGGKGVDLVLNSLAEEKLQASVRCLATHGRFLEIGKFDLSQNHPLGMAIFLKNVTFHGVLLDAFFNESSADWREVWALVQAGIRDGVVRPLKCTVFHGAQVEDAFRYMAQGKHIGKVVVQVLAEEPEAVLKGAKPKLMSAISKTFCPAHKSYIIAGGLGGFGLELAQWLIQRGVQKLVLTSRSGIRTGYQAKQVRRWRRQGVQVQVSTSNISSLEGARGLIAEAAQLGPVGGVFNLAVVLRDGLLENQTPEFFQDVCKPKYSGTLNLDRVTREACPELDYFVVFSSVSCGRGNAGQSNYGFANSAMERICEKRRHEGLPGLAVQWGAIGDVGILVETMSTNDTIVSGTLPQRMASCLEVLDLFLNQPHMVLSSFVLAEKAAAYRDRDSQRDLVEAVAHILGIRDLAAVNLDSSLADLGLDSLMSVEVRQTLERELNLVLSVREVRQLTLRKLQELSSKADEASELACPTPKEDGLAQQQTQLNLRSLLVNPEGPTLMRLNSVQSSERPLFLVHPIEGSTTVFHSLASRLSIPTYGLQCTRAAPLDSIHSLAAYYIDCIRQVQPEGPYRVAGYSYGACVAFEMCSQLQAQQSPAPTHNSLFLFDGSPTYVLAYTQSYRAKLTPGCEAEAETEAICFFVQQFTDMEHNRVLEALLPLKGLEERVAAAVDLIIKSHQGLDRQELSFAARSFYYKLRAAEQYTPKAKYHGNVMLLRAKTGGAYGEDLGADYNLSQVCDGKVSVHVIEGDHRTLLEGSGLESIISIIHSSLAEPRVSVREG

[7] = tested on: CHO; assay: CHO cell viability loss, potency – luminescence, cytotoxicity control for TLR9-MyD88 binding inhibitor project, dose response (AID 588339); format: functional, cell-based, hamster; details: Cricetulus griseus;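 further: CHO cells stably coexpressing TLR9 and MyD88 fusions from primary screen; compound exposure lasted 48 hours before viability readout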
[8] = non-specific 3'UTR reporter inhibition in Clone20-Shn3RL – cell-based, Renilla luciferase, cherry-picked, counter-screen for Shn3 inhibitor project, dose response (AID 624133); format: functional
[9] = molecular target: T2, Type-1 angiotensin II receptor (Homo sapiens, UniProt P30556); assay: antagonism of angiotensin II type 1 receptor – cell-based, uHTS hits, selectivity assay for APJ receptor antagonist project, dose response (AID 463214); format: functional;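 further: antagonist potency against angiotensin II stimulated AT1 response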
T2 sequence (P30556 whole entry): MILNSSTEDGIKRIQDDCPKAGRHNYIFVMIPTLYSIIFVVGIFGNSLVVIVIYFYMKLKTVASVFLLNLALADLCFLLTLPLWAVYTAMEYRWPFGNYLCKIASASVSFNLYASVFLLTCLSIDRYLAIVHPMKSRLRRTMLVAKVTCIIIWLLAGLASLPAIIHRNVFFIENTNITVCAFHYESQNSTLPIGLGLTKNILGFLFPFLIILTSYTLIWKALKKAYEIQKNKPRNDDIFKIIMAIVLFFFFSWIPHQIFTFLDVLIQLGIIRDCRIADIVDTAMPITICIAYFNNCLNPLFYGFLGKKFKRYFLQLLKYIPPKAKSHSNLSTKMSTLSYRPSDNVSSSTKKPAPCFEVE

[10] = molecular target: T1, Fatty acid synthase; assay: inhibition of human FAS-TE enzyme activity – biochemical, kinetic fluorescence intensity, dose response (AID 624326); format: functional;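 further: rate of fluorescence rise from hydrolysis of a fluorogenic O-methyl fluorescein ester substrate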
[11] = reduction of Shn3 3'UTR-driven luciferase in osteoblasts – cell-based, Clone20 osteoblasts, firefly luciferase, cherry-picked, dose response (AID 624132); format: functional;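 further: firefly luciferase luminescence from reporter carrying the Shn3 3'UTR in osteoblasts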
[12] = loss of viability in HepG2 cells – cell-based, CellTiter-Glo, cherry-picked, cytotoxicity control for Shn3 inhibitor project, dose response (AID 624134); format: functional
[13] = tested on: INS1; assay: INS-1E survival protection against cytokine death – cell-based, luminescence, retest, dose response (AID 449756); format: functional; details: Rattus norvegicus;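 further: cell death triggered by IL-1 beta plus TNF-alpha plus IFN-gamma mixture; protective hits raise ATP signal compared with cytokine alone wells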
[14] = Luminescence Cell-Based Dose Confirmation HTS to Identify Inhibitors of Platelet Dense Granule Release. [Related pubchem assays: 1663 (Primary HTS), 1678 (Summary of Project)]; format: functional
[15] = molecular target: Luciferin 4-monooxygenase (Photinus pyralis, UniProt P08659); assay: inhibition of purified Photinus pyralis luciferase – biochemical, luminescence, dose response (AID 1891)
Chain of Luciferin 4-monooxygenase (P08659 whole entry): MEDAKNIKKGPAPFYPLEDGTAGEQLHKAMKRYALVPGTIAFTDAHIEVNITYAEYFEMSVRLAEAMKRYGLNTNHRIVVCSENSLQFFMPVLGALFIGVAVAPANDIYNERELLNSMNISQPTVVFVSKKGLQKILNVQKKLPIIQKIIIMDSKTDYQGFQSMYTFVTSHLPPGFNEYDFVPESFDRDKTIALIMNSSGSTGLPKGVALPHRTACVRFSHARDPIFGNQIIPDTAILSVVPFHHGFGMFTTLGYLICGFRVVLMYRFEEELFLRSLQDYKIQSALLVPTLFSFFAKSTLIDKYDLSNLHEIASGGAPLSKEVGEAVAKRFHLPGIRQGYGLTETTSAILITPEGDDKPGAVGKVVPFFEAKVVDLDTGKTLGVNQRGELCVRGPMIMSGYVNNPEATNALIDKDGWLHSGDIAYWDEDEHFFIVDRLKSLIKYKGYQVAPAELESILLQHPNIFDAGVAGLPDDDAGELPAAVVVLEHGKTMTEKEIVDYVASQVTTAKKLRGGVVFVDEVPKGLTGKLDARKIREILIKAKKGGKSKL

[16] = molecular target: Delta-type opioid receptor (Homo sapiens, UniProt P41143); assay: Counterscreen for agonists of heterodimerization of the mu 1 (OPRM1) and delta 1 (OPRD1) opioid receptors: Luminescence-based cell-based high throughput dose response assay to identify agonists of OPRD1 homodimerization. [Related pubchem assays (depositor defined):AID504326, AID504355, AID504692, AID504904, AID504905]; format: functional
Chain of Delta-type opioid receptor (P41143 whole entry): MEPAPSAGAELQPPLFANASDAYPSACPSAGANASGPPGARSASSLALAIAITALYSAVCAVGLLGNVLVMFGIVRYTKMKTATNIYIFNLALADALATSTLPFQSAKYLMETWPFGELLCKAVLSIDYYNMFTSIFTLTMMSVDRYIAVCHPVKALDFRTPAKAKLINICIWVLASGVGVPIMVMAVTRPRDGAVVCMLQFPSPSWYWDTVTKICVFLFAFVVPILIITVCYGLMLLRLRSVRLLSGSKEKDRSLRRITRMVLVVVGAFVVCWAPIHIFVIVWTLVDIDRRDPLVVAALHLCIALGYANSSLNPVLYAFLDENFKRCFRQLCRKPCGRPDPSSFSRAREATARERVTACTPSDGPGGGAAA

[17] = molecular target: 5-hydroxytryptamine receptor 5A (Homo sapiens, UniProt P47898); assay: Counterscreen for agonists of OPRM1-OPRD1 heterodimerization: luminescence-based cell-based high throughput dose response assay to identify agonists of 5-hydroxytryptamine (serotonin) 5A receptor (HTR5A). [Related pubchem assays (depositor defined):AID504326, AID504355, AID504692, AID504904, AID504905]; format: functional
Chain of 5-hydroxytryptamine receptor 5A (P47898 whole entry): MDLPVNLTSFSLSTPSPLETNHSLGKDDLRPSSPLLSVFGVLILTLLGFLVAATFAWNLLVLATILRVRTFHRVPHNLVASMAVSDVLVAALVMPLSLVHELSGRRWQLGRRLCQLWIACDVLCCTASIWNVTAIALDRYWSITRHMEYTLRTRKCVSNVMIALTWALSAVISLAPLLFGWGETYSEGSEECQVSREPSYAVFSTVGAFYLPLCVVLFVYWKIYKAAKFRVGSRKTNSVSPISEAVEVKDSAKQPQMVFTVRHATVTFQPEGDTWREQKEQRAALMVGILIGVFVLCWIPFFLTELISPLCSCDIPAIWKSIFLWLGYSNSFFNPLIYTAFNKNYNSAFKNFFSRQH

[18] = molecular target: Mu-type opioid receptor (Homo sapiens, UniProt P35372); assay: Counterscreen for agonists of heterodimerization of the mu 1 (OPRM1) and delta 1 (OPRD1) opioid receptors: Luminescence-based cell-based high throughput dose response assay to identify agonists of OPRM1 homodimerization.; format: functional;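 further: U2OS cells expressing OPRM1 and beta-arrestin as split beta-galactosidase partners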
[19] = molecular target: T3, Short transient receptor potential channel 4 (Mus musculus, UniProt Q9QUQ5); assay: block of DAMGO-driven TRPC4 calcium entry – cell-based, HEK293 TRPC4/mu-opioid, Fluo-4 calcium, dose response (AID 434942); format: functional;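 further: potency of inhibitors blocking the TRPC4 calcium response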
T3 sequence (Q9QUQ5 whole entry): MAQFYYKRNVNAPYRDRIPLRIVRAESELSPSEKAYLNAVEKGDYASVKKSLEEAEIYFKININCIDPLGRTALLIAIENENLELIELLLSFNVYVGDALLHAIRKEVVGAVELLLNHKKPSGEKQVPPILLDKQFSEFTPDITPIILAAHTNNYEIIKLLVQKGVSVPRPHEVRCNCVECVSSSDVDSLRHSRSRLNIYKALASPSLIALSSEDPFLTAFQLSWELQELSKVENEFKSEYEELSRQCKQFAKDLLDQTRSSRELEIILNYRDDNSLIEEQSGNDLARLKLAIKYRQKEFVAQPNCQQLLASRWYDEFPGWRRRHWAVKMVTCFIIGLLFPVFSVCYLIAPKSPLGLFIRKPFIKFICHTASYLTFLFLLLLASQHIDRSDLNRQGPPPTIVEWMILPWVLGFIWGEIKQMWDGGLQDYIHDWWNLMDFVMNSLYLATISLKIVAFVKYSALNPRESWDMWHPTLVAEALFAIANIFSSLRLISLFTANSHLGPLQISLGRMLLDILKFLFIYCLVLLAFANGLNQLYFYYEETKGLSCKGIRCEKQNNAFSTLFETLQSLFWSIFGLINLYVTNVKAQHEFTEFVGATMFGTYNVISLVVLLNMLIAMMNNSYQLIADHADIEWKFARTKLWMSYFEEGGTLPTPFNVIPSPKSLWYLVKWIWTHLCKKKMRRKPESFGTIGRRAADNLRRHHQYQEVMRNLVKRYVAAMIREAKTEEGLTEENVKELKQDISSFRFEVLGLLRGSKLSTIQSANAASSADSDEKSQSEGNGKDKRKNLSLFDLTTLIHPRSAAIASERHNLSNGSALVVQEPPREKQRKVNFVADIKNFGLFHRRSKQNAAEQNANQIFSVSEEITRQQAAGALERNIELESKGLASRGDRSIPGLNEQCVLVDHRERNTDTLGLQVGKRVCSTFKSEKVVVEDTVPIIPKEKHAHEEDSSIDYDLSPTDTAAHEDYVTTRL

[20] = molecular target: T3, Short transient receptor potential channel 4; assay: calcium entry via TRPC4 opening agents – cell-based, HEK293 TRPC4/mu-opioid, Fluo-4 calcium, dose response (AID 434937); format: functional
[21] = molecular target: T4, Apoptotic protease-activating factor 1 (Homo sapiens, UniProt O14727); format: functional
T4 sequence (O14727 whole entry): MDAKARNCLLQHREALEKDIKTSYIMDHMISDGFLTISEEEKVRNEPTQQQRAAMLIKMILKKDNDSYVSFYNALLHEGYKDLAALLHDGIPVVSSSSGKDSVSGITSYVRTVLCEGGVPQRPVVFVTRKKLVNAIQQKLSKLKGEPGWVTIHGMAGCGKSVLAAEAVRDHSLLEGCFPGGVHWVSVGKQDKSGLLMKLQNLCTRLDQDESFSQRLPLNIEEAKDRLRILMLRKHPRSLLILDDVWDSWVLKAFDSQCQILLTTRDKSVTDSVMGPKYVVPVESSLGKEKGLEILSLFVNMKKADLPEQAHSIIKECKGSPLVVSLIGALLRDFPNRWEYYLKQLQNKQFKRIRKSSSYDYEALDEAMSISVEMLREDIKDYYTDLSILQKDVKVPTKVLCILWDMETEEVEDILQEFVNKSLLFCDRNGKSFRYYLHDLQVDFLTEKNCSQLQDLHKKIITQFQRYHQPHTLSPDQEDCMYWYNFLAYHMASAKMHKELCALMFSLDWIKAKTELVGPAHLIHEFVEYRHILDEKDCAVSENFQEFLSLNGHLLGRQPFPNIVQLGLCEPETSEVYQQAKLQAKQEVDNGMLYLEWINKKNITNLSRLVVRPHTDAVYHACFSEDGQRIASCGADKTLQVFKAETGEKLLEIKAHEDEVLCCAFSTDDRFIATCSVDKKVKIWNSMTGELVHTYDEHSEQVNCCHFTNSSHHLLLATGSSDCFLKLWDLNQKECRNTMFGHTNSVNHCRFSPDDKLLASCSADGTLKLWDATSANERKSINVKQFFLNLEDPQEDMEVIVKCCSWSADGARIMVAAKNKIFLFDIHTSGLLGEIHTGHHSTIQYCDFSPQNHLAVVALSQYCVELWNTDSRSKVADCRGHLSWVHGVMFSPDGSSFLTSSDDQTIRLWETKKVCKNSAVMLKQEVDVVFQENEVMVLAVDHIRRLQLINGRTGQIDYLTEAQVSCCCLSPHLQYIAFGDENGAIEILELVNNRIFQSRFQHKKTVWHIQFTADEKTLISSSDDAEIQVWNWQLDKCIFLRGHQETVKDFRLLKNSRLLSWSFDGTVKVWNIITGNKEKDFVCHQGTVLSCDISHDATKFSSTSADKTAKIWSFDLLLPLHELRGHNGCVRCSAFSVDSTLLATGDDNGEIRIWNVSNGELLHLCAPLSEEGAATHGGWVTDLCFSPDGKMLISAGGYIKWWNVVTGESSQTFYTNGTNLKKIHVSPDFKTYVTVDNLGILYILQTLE

[22] = molecular target: T5, Carboxy-terminal domain RNA polymerase II polypeptide A small phosphatase 1 (Homo sapiens, UniProt Q9GZU7); assay: CTDSP1 inhibitors, concentration-response, biochemical, absorbance readout, ultra-high-throughput screen actives (AID 540297); format: functional
T5 sequence (Q9GZU7 whole entry): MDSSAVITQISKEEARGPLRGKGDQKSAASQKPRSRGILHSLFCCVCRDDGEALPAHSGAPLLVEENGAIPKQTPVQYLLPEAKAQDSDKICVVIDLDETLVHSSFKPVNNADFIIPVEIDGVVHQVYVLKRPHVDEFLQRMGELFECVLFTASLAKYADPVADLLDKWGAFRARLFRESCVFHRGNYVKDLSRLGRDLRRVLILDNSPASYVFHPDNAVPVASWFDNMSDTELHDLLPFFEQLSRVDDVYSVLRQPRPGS

Oc1ccc(Br)cc1/C=N/N1CCCCC1
EC50 [1]: > 120 µM (not active)
EC50 [2]: 4.76 µM (active)
EC50 [3]: > 120 µM (not active)
AC50 [4]: 41.4 µM (active)

CN(c1ccccc1)S(=O)(=O)c1ccc(NC(=O)c2nc(S(C)(=O)=O)ncc2Cl)cc1
EC50 [5]: > 40 µM (inactive)
IC50 [6]: 5.88 µM (active)
IC50 [7]: 2.03 µM (active)
AC50 [8]: 2.77 µM (active)
IC50 [9]: 3.14 µM (active)
IC50 [10]: 5.01 µM (active)
AC50 [11]: 0.502 µM (active)
AC50 [12]: 10.5 µM (active)
AC50 [13]: 5.65 µM (active)

c1ccc(C2=NN(c3ccccc3)CC2)cc1
EC50 [1]: > 120 µM (not active)
EC50 [2]: 0.11 µM (active)
EC50 [3]: 0.187 µM (active)
EC50 [14]: > 112 µM (not active)
AC50 [4]: 85.4 µM (active)
EC50 [15]: > 112 µM (not active)

Cc1ccc(C2(O)C[N+](c3ccccc3)=C3SCCN32)cc1 (centres undefined)
EC50 [16]: > 92.5 µM (inactive)
EC50 [17]: > 92.5 µM (inactive)
EC50 [18]: 48.2 µM (inactive)
EC50 [19]: 0.237 µM (active)
EC50 [20]: 0.596 µM (active)

CCCn1ncc2c(Nc3ccc(C)c(C)c3)ncnc21
AC50 [4]: 39.8 µM (active)

CC(C)CC[n+]1ccn(C2=C([N-]S(=O)(=O)c3ccccc3)C(=O)c3ccccc3C2=O)c1
IC50 [21]: 12.9 µM (active)

CCc1ccc(NC(=O)c2cc(-c3cccs3)on2)cc1
AC50 [4]: 160 µM (active)

Nn1c(SCC(=O)NC(=O)NCc2ccco2)nnc1-c1ccc(OC(F)F)cc1
IC50 [22]: 3.75 µM (active)

Cc1ccc(Cl)cc1N1CCN(C(=O)CN(c2ccccc2)S(=O)(=O)N(C)C)CC1
IC50 [22]: 5.49 µM (active)
